Common to all, as to assay: relative viability (nuclei count vs DMSO), 5 days (fraction); higher = more cells survive
Compound in assay [1]: COc1cc2c(Oc3ccc4[nH]c(C)cc4c3F)ncnc2cc1OCCCN1CCCC1 [Cediranib] + C[C@@H](Oc1cc(-c2cnn(C3CCNCC3)c2)cnc1N)c1c(Cl)ccc(F)c1Cl [Crizotinib] (partner 1 µM)
Put shortly:
(§1)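 Each reported value is a median over duplicate plates. It expresses relative viability: treated-well nuclei count divided by vehicle-well nuclei count. Lung cancer cell lines in 1536-well plates were dosed by pin tool a day after seeding, alone with one drug or with a fixed anchor-drug dose plus five library-drug doses (not always all listed) in √10 steps, and nuclei were counted after 5 days.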

Compound in assay [2]: Nc1ncn([C@H]2C[C@H](O)[C@@H](CO)O2)c(=O)n1 [Decitabine] + CS(=O)(=O)N1CCN(Cc2cc3nc(-c4cccc5[nH]ncc45)nc(N4CCOCC4)c3s2)CC1 [Pictilisib] (partner 1 µM)
In outline:
as §1

Compound in assay [3]: Nc1ncn([C@H]2C[C@H](O)[C@@H](CO)O2)c(=O)n1 [Decitabine] + NC(=O)Nc1cc(-c2cccc(F)c2)sc1C(=O)N[C@H]1CCCNC1 [AZD7762] (partner 0.2 µM)
Put shortly:
as §1

Compound in assay [4]: O=C(C[C@H]1NCCC[C@@H]1O)Cn1cnc2cc(Br)c(Cl)cc2c1=O (racemic) [Halofuginone] + Cc1cc(Nc2cc(N3CCN(C)CC3)nc(Sc3ccc(NC(=O)C4CC4)cc3)n2)n[nH]1 [Tozasertib] (partner 0.1 µM)
Put shortly: as §1

As for NCI-H2347, the relative viability turned out to be 0.672 in assay [1] (first compound 0.04 µM); 0.698 in assay [1] (first compound 0.1265 µM); 0.794 in assay [1] (first compound 0.4 µM); 0.865 in assay [1] (first compound 1.265 µM); 0.675 in assay [1] (first compound 4 µM); 0.59 in assay [2] (first compound 0.04 µM). In addition, the relative viability in assay [2] (first compound 0.1265 µM) came out at 0.599; in assay [2] (first compound 0.4 µM), 0.63; in assay [2] (first compound 1.265 µM), 0.495; in assay [2] (first compound 4 µM) it was 0.554; in assay [3] (first compound 0.04 µM), 0.734; in assay [3] (first compound 0.1265 µM) it was 0.67. Also, the relative viability is 0.69 in assay [3] (first compound 0.4 µM); 0.398 in assay [3] (first compound 1.265 µM); 0.433 in assay [3] (first compound 4 µM); 0.558 in assay [4] (first compound 0.001 µM); 0.521 in assay [4] (first compound 0.003162 µM); 0.662 in assay [4] (first compound 0.01 µM). Besides, the relative viability in assay [4] (first compound 0.03162 µM) was found to be 0.692; in assay [4] (first compound 0.1 µM), 0.418.
In the case of NCI-H2405, the relative viability came out at 0.849 in assay [1] (first compound 0.04 µM); 0.82 in assay [1] (first compound 0.1265 µM); 0.792 in assay [1] (first compound 0.4 µM); 0.823 in assay [1] (first compound 1.265 µM); 0.825 in assay [1] (first compound 4 µM); 0.457 in assay [2] (first compound 0.04 µM). For the same cell line, the relative viability in assay [2] (first compound 0.1265 µM) was determined as 0.453; in assay [2] (first compound 0.4 µM), 0.562; in assay [2] (first compound 1.265 µM) it was 0.406; in assay [2] (first compound 4 µM) it was 0.298; in assay [3] (first compound 0.04 µM) it was 0.814; in assay [3] (first compound 0.1265 µM), 0.902. Moreover, the relative viability in assay [3] (first compound 0.4 µM) came out at 0.977; in assay [3] (first compound 1.265 µM) it was 0.501; in assay [3] (first compound 4 µM) it was 0.431; in assay [4] (first compound 0.001 µM) it was 0.906; in assay [4] (first compound 0.003162 µM) it was 0.776; in assay [4] (first compound 0.01 µM), 0.682. In addition, the relative viability amounted to 0.775 in assay [4] (first compound 0.03162 µM) and 0.64 in assay [4] (first compound 0.1 µM).
Turning to NCI-H3122, the relative viability turned out to be 0.259 in assay [1] (first compound 0.04 µM); 0.297 in assay [1] (first compound 0.1265 µM); 0.277 in assay [1] (first compound 0.4 µM); 0.256 in assay [1] (first compound 1.265 µM); 0.275 in assay [1] (first compound 4 µM); 0.64 in assay [2] (first compound 0.04 µM). Moreover, the relative viability in assay [2] (first compound 0.1265 µM) came to 0.564; in assay [2] (first compound 0.4 µM), 0.399; in assay [2] (first compound 1.265 µM), 0.571; in assay [2] (first compound 4 µM), 0.517; in assay [3] (first compound 0.04 µM), 0.927; in assay [3] (first compound 0.1265 µM) it was 0.823. Further, the relative viability in assay [3] (first compound 0.4 µM) amounted to 0.529; in assay [3] (first compound 1.265 µM) it was 0.466; in assay [3] (first compound 4 µM) it was 0.5; in assay [4] (first compound 0.001 µM), 0.38; in assay [4] (first compound 0.003162 µM) it was 0.381; in assay [4] (first compound 0.01 µM) it was 0.356. In addition, the relative viability in assay [4] (first compound 0.03162 µM) amounted to 0.414; in assay [4] (first compound 0.1 µM) it was 0.166.
For the cell line PC-3 [JPC-3], the relative viability in assay [1] (first compound 0.04 µM) amounted to 1.05; in assay [1] (first compound 0.1265 µM), 1.04; in assay [1] (first compound 0.4 µM) it was 1.01; in assay [1] (first compound 1.265 µM), 1.02; in assay [1] (first compound 4 µM), 0.857; in assay [2] (first compound 0.1265 µM), 0.733. In addition, the relative viability in assay [2] (first compound 0.4 µM) was 0.434; in assay [2] (first compound 1.265 µM) it was 0.609; in assay [2] (first compound 4 µM), 0.646; in assay [3] (first compound 0.1265 µM) it was 0.793; in assay [3] (first compound 0.4 µM), 0.6; in assay [3] (first compound 1.265 µM), 0.453. For the same cell line, the relative viability was found to be 0.602 in assay [3] (first compound 4 µM); 0.863 in assay [4] (first compound 0.001 µM); 0.872 in assay [4] (first compound 0.003162 µM); 0.863 in assay [4] (first compound 0.01 µM); 0.874 in assay [4] (first compound 0.03162 µM); 0.856 in assay [4] (first compound 0.1 µM).
Take PC-14: the relative viability is 0.895 in assay [1] (first compound 0.04 µM); 0.909 in assay [1] (first compound 0.1265 µM); 0.82 in assay [1] (first compound 0.4 µM); 0.918 in assay [1] (first compound 1.265 µM); 0.855 in assay [1] (first compound 4 µM); 0.0668 in assay [2] (first compound 0.04 µM). The relative viability came out at 0.749 in assay [2] (first compound 0.1265 µM); 0.348 in assay [2] (first compound 0.4 µM); 0.28 in assay [2] (first compound 1.265 µM); 0.11 in assay [2] (first compound 4 µM); 0.194 in assay [3] (first compound 0.04 µM); 0.281 in assay [3] (first compound 0.1265 µM). Besides, the relative viability in assay [3] (first compound 0.4 µM) was found to be 0.124; in assay [3] (first compound 1.265 µM) it was 0.159; in assay [3] (first compound 4 µM) it was 0.116; in assay [4] (first compound 0.001 µM) it was 0.701; in assay [4] (first compound 0.003162 µM), 0.626; in assay [4] (first compound 0.01 µM), 0.495. The relative viability was 0.529 in assay [4] (first compound 0.03162 µM) and 0.208 in assay [4] (first compound 0.1 µM).
Take RERF-LC-KJ: the relative viability turned out to be 0.875 in assay [1] (first compound 0.04 µM); 0.893 in assay [1] (first compound 0.1265 µM); 0.799 in assay [1] (first compound 0.4 µM); 0.782 in assay [1] (first compound 1.265 µM); 0.752 in assay [1] (first compound 4 µM); 0.508 in assay [2] (first compound 0.04 µM). Moreover, the relative viability in assay [2] (first compound 0.1265 µM) was 0.607; in assay [2] (first compound 0.4 µM), 0.403; in assay [2] (first compound 1.265 µM), 0.368; in assay [2] (first compound 4 µM), 0.354; in assay [3] (first compound 0.04 µM), 0.822; in assay [3] (first compound 0.1265 µM) it was 0.95. Further, the relative viability in assay [3] (first compound 0.4 µM) was 0.439; in assay [3] (first compound 1.265 µM) it was 0.75; in assay [3] (first compound 4 µM), 0.832; in assay [4] (first compound 0.001 µM), 0.549; in assay [4] (first compound 0.003162 µM), 0.484; in assay [4] (first compound 0.01 µM) it was 0.468. Also, the relative viability in assay [4] (first compound 0.03162 µM) was found to be 0.456; in assay [4] (first compound 0.1 µM), 0.346.

(Values after the supplement of paper PMC10307832.)
